According to patent publication US20100267561A1, “HERBICIDAL PYRIDAZINONE DERIVATIVES” (priority 2007, published 2010):

Experiments:
Format in all cases: in vivo
[1] = system: large crabgrass (Digitaria sanguinalis); experiment: Test A pre-/postemergence plant response
Method in brief: (§1)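 Scores reflect visual plant injury relative to untreated controls on a 0–100 scale, recorded approximately 10 days after simultaneous preemergence soil spraying and postemergence spraying of one- to two-leaf seedlings grown in loam–sand.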

[2] = system: wheat (Triticum aestivum); experiment: Test A pre-/postemergence plant response
Method in brief: as §1

[3] = system: giant foxtail (Setaria faberi); experiment: Test A pre-/postemergence plant response
Method in brief: as §1

corn (Zea mays) = experiment: Test A pre-/postemergence plant response
Method in brief: as §1

[4] = system: barnyardgrass (Echinochloa crus-galli); experiment: Test A pre-/postemergence plant response
Method in brief: as §1

[5] = system: morningglory (Ipomoea coccinea); experiment: Test A pre-/postemergence plant response
Method in brief: as §1

[6] = system: velvetleaf (Abutilon theophrasti); experiment: Test A pre-/postemergence plant response
Method in brief: as §1

[7] = system: pigweed (Amaranthus retroflexus); experiment: Test A pre-/postemergence plant response
Method in brief: as §1

[8] = system: catchweed bedstraw (Galium aparine); experiment: Test B pre-/postemergence plant response; conditions: Preemergence
Method in brief: (§2)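 Seeds were sown and sprayed preemergence, while plants at 2 to 18 cm (1- to 4-leaf stage) got postemergence sprays. Compounds were formulated in a non-phytotoxic solvent mixture with surfactant. After 13 to 15 days in a greenhouse, injury was rated visually against untreated controls, 0 (no effect) to 100 (complete control).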

[9] = system: blackgrass (Alopecurus myosuroides); experiment: Test B pre-/postemergence plant response; conditions: for Blackgrass plant response rating: 8 g ai/ha
Method in brief: as §2

[10] = system: yellow nutsedge (Cyperus esculentus); experiment: Test B pre-/postemergence plant response
Method in brief: as §2

[11] = Postemergence, 31 g ai/ha, 0 to 100 scale (0 no effect, 100 complete control)
[12] = Postemergence, 125 g ai/ha, 0 to 100 scale, 0 no effect, 100 complete control
[13] = Preemergence, 31 g ai/ha, 0 to 100 scale, 0 is no effect, 100 is complete control
[14] = Preemergence, 125 g ai/ha, 0 to 100 scale (0 no effect, 100 complete control)
[15] = Postemergence, 16 g ai/ha, scale 0 to 100
[16] = Postemergence, 31 g ai/ha, scale 0 to 100
[17] = Postemergence, 62 g ai/ha, scale 0 to 100, 0 no effect, 100 complete control
[18] = Preemergence, 16 g ai/ha, scale 0 to 100 (0 no effect, 100 complete control)
[19] = Preemergence, 31 g ai/ha, scale 0 to 100 (0 no effect, 100 complete control)
[20] = Preemergence, 62 g ai/ha, 0 to 100 scale, 0 no effect, 100 complete control
[21] = 8 g ai/ha, postemergence, 0-100 scale
[22] = Preemergence, 8 g ai/ha, scale 0 to 100
[23] = Postemergence, 31 g ai/ha, scale 0 to 100, 0 no effect, 100 complete control
[24] = Preemergence, 31 g ai/ha, 0 to 100 scale, 0 no effect, 100 complete control
[25] = Preemergence, 62 g ai/ha, scale 0 to 100

CCc1cc(-c2ccc(C(F)(F)F)cc2)nn1-c1c(O)cnn(CC)c1=O [Compound 67]
100: Plant response rating, Crabgrass, Large [1, 12] | Plant response rating, Wheat [2, 12] | Plant response rating, Foxtail, Giant [3, 11] | Plant response rating, Foxtail, Giant [3, 12] | Plant response rating, Foxtail, Giant [3, 14] | Plant response rating, Corn (corn (Zea mays); [12]) | Plant response rating, Barnyardgrass [4, 11] | Plant response rating, Barnyardgrass [4, 12] | Plant response rating, Barnyardgrass [4, 14] | Plant response rating, Blackgrass [9, 15] | Plant response rating, Blackgrass [9, 16] | Plant response rating, Blackgrass [9, 17] | Plant response rating, Blackgrass [9, 18] | Plant response rating, Blackgrass [9, 19] | Plant response rating, Blackgrass [9, 20] | Blackgrass plant response rating ([9]; Preemergence, scale 0 to 100)
0: Plant response rating, Barnyardgrass [4, 13] | Plant response rating, Morningglory [5, 11] | Plant response rating, Morningglory [5, 12] | Plant response rating, Morningglory [5, 13] | Plant response rating, Morningglory [5, 14] | Plant response rating, Velvetleaf [6, 11] | Plant response rating, Velvetleaf [6, 12] | Plant response rating, Velvetleaf [6, 13] | Plant response rating, Velvetleaf [6, 14] | Plant response rating, Pigweed [7, 11] | Plant response rating, Pigweed [7, 12] | Plant response rating, Pigweed [7, 13] | Plant response rating, Pigweed [7, 14] | Plant response rating, Galium ([8]; 31 g ai/ha, scale 0 to 100 (0 no effect, 100 complete control)) | Plant response rating, Galium ([8]; 62 g ai/ha, 0 to 100 scale, 0 no effect, 100 complete control) | Galium plant response rating ([8]; 8 g ai/ha, scale 0 to 100) | Galium plant response rating ([8]; 16 g ai/ha, scale 0 to 100) | Nutsedge, Yellow plant response rating [10, 21] | Nutsedge, Yellow plant response rating ([10]; 16 g ai/ha, postemergence, 0-100 scale) | Plant response rating, Nutsedge, Yellow [10, 16] | Plant response rating, Nutsedge, Yellow [10, 17] | Plant response rating, Nutsedge, Yellow [10, 19] | Plant response rating, Nutsedge, Yellow [10, 20] | Nutsedge, Yellow plant response rating [10, 22] | Nutsedge, Yellow plant response rating ([10]; Preemergence, 16 g ai/ha, scale 0 to 100)
85: Blackgrass plant response rating ([9]; postemergence, 0-100 scale)
80: Plant response rating, Crabgrass, Large [1, 11] | Plant response rating, Corn (corn (Zea mays); [14])
90: Plant response rating, Crabgrass, Large [1, 14] | Plant response rating, Wheat [2, 11] | Plant response rating, Wheat [2, 14] | Plant response rating, Corn (corn (Zea mays); [11])
40: Plant response rating, Foxtail, Giant [3, 13]
20: Plant response rating, Crabgrass, Large [1, 13] | Plant response rating, Wheat [2, 13] | Plant response rating, Corn (corn (Zea mays); [13])

COC(=O)Oc1cnn(C)c(=O)c1-n1nc(-c2ccc(Cl)cc2)cc1C [Compound 33]
30: Plant response rating, Corn (corn (Zea mays); [13])
95: Plant response rating, Blackgrass [9, 17]
20: Plant response rating, Wheat [2, 11]
60: Plant response rating, Corn (corn (Zea mays); [11]) | Blackgrass plant response rating ([9]; Preemergence, scale 0 to 100)
80: Plant response rating, Wheat [2, 14] | Plant response rating, Blackgrass [9, 23]
100: Plant response rating, Crabgrass, Large [1, 12] | Plant response rating, Crabgrass, Large [1, 14] | Plant response rating, Foxtail, Giant [3, 12] | Plant response rating, Foxtail, Giant [3, 13] | Plant response rating, Foxtail, Giant [3, 14] | Plant response rating, Barnyardgrass [4, 12] | Plant response rating, Barnyardgrass [4, 13] | Plant response rating, Barnyardgrass [4, 14] | Plant response rating, Blackgrass [9, 18] | Plant response rating, Blackgrass [9, 24] | Plant response rating, Blackgrass [9, 25]
70: Plant response rating, Wheat [2, 12] | Blackgrass plant response rating ([9]; postemergence, 0-100 scale) | Plant response rating, Blackgrass [9, 15]
90: Plant response rating, Crabgrass, Large [1, 11] | Plant response rating, Crabgrass, Large [1, 13] | Plant response rating, Foxtail, Giant [3, 11] | Plant response rating, Corn (corn (Zea mays); [12]) | Plant response rating, Corn (corn (Zea mays); [14]) | Plant response rating, Barnyardgrass [4, 11]
50: Plant response rating, Wheat [2, 13]
0: Plant response rating, Morningglory [5, 11] | Plant response rating, Morningglory [5, 12] | Plant response rating, Morningglory [5, 13] | Plant response rating, Morningglory [5, 14] | Plant response rating, Velvetleaf [6, 11] | Plant response rating, Velvetleaf [6, 12] | Plant response rating, Velvetleaf [6, 13] | Plant response rating, Velvetleaf [6, 14] | Plant response rating, Pigweed [7, 11] | Plant response rating, Pigweed [7, 12] | Plant response rating, Pigweed [7, 14] | Plant response rating, Galium ([8]; 16 g ai/ha, scale 0 to 100 (0 no effect, 100 complete control)) | Plant response rating, Galium ([8]; 31 g ai/ha, 0 to 100 scale, 0 no effect, 100 complete control) | Plant response rating, Galium ([8]; 62 g ai/ha, scale 0 to 100) | Galium plant response rating ([8]; 8 g ai/ha, scale 0 to 100) | Nutsedge, Yellow plant response rating [10, 21] | Plant response rating, Nutsedge, Yellow [10, 15] | Plant response rating, Nutsedge, Yellow [10, 23] | Plant response rating, Nutsedge, Yellow [10, 17] | Plant response rating, Nutsedge, Yellow [10, 18] | Plant response rating, Nutsedge, Yellow [10, 24] | Plant response rating, Nutsedge, Yellow [10, 25] | Nutsedge, Yellow plant response rating [10, 22]
